Data from US6472348B1, “Pyridone derivatives and herbicides” (Kumiai Chemical Industry Co., Ltd., priority 1996, dated 2002).

What was measured:
Format in all cases: in vivo
wheat (Tr) = assay: Test Example 5: crop plant selectivity by upland field soil treatment (wheat), phytotoxicity; set-up: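 grade of crop injury; 5 = at least 90%; 4 = 70 to 90%; 3 = 50 to 70%; 2 = 30 to 50%; 1 = 10 to 30%; 0 = under 10%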; conditions: dose 6.3 g ai/10a, 21st day after application
In short: (§1)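 A greenhouse pot test in which wheat and weeds share sand-filled pots; after the soil application, damage is graded against set standards three weeks later.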

China jute (Ab) [1] = assay: Test Example 6: crop plant selectivity by upland field soil treatment (soybean), herbicidal effects; set-up: scale not given here; conditions: dose 6.3 g ai/10a, 21st day after application
In short: (§2)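 Pre-emergence soil treatment; sand-filled pots, seeds sown then soil-covered; greenhouse culture; visual rating of weed control and soybean injury on day 21 post-application per standard scale.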

[2] = tested on: common lambsquarters (Ch); assay: as above; set-up: scale not given here; conditions: dose 6.3 g ai/10a, 21st day after application
In short: as §2

green foxtail (Se) [3] = assay: as above; set-up: scale not given here; conditions: dose 6.3 g ai/10a, 21st day after application
In short: as §2

pale smartweed (Po) [4] = assay: as above; set-up: scale not given here; conditions: dose 6.3 g ai/10a, 21st day after application
In short: as §2

slender amaranth (Am) [5] = assay: as above; set-up: scale not given here; conditions: dose 6.3 g ai/10a, 21st day after application
In short: as §2

China jute (Ab) [6] = assay: Test Example 7: crop plant selectivity by upland field soil treatment (corn), herbicidal effects; set-up: scale not given here; conditions: dose 6.3 g ai/10a, 21st day after application
In short: (§3)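 Scoring of weed kill and corn injury was done on day 21 after the application, using defined standards. Before that, sown seeds in sand-filled pots were covered with soil, treated, and grown in a greenhouse.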

[7] = tested on: common lambsquarters (Ch); assay: as above; set-up: scale not given here; conditions: dose 6.3 g ai/10a, 21st day after application
In short: as §3

green foxtail (Se) [8] = assay: as above; set-up: scale not given here; conditions: dose 6.3 g ai/10a, 21st day after application
In short: as §3

pale smartweed (Po) [9] = assay: as above; set-up: scale not given here; conditions: dose 6.3 g ai/10a, 21st day after application
In short: as §3

slender amaranth (Am) [10] = assay: as above; set-up: scale not given here; conditions: dose 6.3 g ai/10a, 21st day after application
In short: as §3

[11] = tested on: common lambsquarters (Ch); assay: Test Example 2: herbicidal effects by upland field soil treatment; conditions: 100 g of the active ingredient per 10 ares, evaluated on the 21st day after application;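 further: grade of growth control; 5 = at least 90%; 4 = 70 to 90%; 3 = 50 to 70%; 2 = 30 to 50%; 1 = 10 to 30%; 0 = under 10%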
Description: (§4) (Test on Herbicidal Effects by Upland Field Soil Treatment)

barnyardgrass (Ec) [12] = assay: as above; conditions: 100 g of the active ingredient per 10 ares, evaluated on the 21st day after application
Description: as §4

rice flatsedge (Ci) [13] = assay: as above; conditions: 100 g of the active ingredient per 10 ares, evaluated on the 21st day after application
Description: as §4

pale smartweed (Po) [14] = assay: as above; conditions: 100 g of the active ingredient per 10 ares, evaluated on the 21st day after application
Description: as §4

slender amaranth (Am) [15] = assay: as above; conditions: 100 g of the active ingredient per 10 ares, evaluated on the 21st day after application
Description: as §4

Digitaria ciliaris (Di) = assay: as above; conditions: 100 g of the active ingredient per 10 ares, evaluated on the 21st day after application;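 further: grade of growth control; 5 = at least 90%; 4 = 70 to 90%; 3 = 50 to 70%; 2 = 30 to 50%; 1 = 10 to 30%; 0 = under 10%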
Description: as §4

cotton (Go) = assay: Test Example 4: crop plant selectivity by upland field soil treatment (cotton), phytotoxicity; set-up: scale not given here; conditions: dose 6.3 g ai/10 a, evaluated 21st day after application
In short: (§5)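 Weeds and cotton, sown in sand and topped with soil, received a soil-applied treatment. Evaluation after three weeks in a greenhouse followed a standard rating scale.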

corn (Ze) = assay: Test Example 7: crop plant selectivity by upland field soil treatment (corn), phytotoxicity; set-up: scale not given here; conditions: dose 6.3 g ai/10a, 21st day after application
In short: as §3

monochoria (Mo) = assay: Test Example 1: herbicidal effects by paddy field soil treatment; conditions: 100 g of the active ingredient per 10 ares, 21st day after the application, index 0-5 of Table 47;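 further: grade of growth control; 5 = at least 90%; 4 = 70 to 90%; 3 = 50 to 70%; 2 = 30 to 50%; 1 = 10 to 30%; 0 = under 10%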
In short: (§6)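 Greenhouse pot test in flooded paddy soil, dosed at 100 g a.i. per 10 ares; effect scored on day 21.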

barnyardgrass (Ec) [16] = assay: as above; conditions: 100 g of the active ingredient per 10 ares, 21st day after the application, index 0-5 of Table 47
In short: as §6

bulrush (Sc) = assay: as above; conditions: 100 g of the active ingredient per 10 ares, 21st day after the application, index 0-5 of Table 47;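 further: grade of growth control; 5 = at least 90%; 4 = 70 to 90%; 3 = 50 to 70%; 2 = 30 to 50%; 1 = 10 to 30%; 0 = under 10%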
In short: as §6

soybean (Gl) = assay: Test Example 6: crop plant selectivity by upland field soil treatment (soybean), phytotoxicity; set-up: scale not given here; conditions: dose 6.3 g ai/10a, 21st day after application
In short: as §2

China jute (Ab) [17] = assay: Test Example 5: crop plant selectivity by upland field soil treatment (wheat), herbicidal effects; set-up: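 grade of growth control; 5 = at least 90%; 4 = 70 to 90%; 3 = 50 to 70%; 2 = 30 to 50%; 1 = 10 to 30%; 0 = under 10%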; conditions: dose 6.3 g ai/10a, 21st day after application
In short: as §1

[18] = tested on: common lambsquarters (Ch); assay: as above; set-up: scale not given here; conditions: dose 6.3 g ai/10a, 21st day after application
In short: as §1

green foxtail (Se) [19] = assay: as above; set-up: scale not given here; conditions: dose 6.3 g ai/10a, 21st day after application
In short: as §1

pale smartweed (Po) [20] = assay: as above; set-up: scale not given here; conditions: dose 6.3 g ai/10a, 21st day after application
In short: as §1

slender amaranth (Am) [21] = assay: as above; set-up: scale not given here; conditions: dose 6.3 g ai/10a, 21st day after application
In short: as §1

China jute (Ab) [22] = assay: Test Example 4: crop plant selectivity by upland field soil treatment (cotton), herbicidal effects; set-up: scale not given here; conditions: dose 6.3 g ai/10 a, evaluated 21st day after application
In short: as §5

[23] = tested on: common lambsquarters (Ch); assay: as above; set-up: scale not given here; conditions: dose 6.3 g ai/10 a, evaluated 21st day after application
In short: as §5

green foxtail (Se) [24] = assay: as above; set-up: scale not given here; conditions: dose 6.3 g ai/10 a, evaluated 21st day after application
In short: as §5

pale smartweed (Po) [25] = assay: as above; set-up: scale not given here; conditions: dose 6.3 g ai/10 a, evaluated 21st day after application
In short: as §5

slender amaranth (Am) [26] = assay: as above; set-up: scale not given here; conditions: dose 6.3 g ai/10 a, evaluated 21st day after application
In short: as §5

[27] = tested on: common lambsquarters (Ch); assay: Test Example 3: herbicidal effects by upland field foliage treatment; set-up: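 grade of growth control; 5 = at least 90%; 4 = 70 to 90%; 3 = 50 to 70%; 2 = 30 to 50%; 1 = 10 to 30%; 0 = under 10%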; conditions: 100 g active ingredient per 10 ares, evaluated 14th day after treatment
In short: (§7)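 Scores reflect herbicidal effect graded by standards on the 14th day after foliage treatment of weeds grown 2 weeks in a greenhouse.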

barnyardgrass (Ec) [28] = assay: as above; set-up: scale not given here; conditions: 100 g active ingredient per 10 ares, evaluated 14th day after treatment
In short: as §7

rice flatsedge (Ci) [29] = assay: as above; set-up: scale not given here; conditions: 100 g active ingredient per 10 ares, evaluated 14th day after treatment
In short: as §7

Diaitaria ciliaris (Di) = assay: as above; set-up: scale not given here; conditions: 100 g active ingredient per 10 ares, evaluated 14th day after treatment
In short: as §7

pale smartweed (Po) [30] = assay: as above; set-up: scale not given here; conditions: 100 g active ingredient per 10 ares, evaluated 14th day after treatment
In short: as §7

slender amaranth (Am) [31] = assay: as above; set-up: scale not given here; conditions: 100 g active ingredient per 10 ares, evaluated 14th day after treatment
In short: as §7

Row | Structure (SMILES) | Phytotoxicity Tr (wheat (Tr)) | Herbicidal effects Ab (China jute (Ab) [1]) | Herbicidal effects Ch [2] | Herbicidal effects Se (green foxtail (Se) [3]) | Herbicidal effects Po (pale smartweed (Po) [4]) | Herbicidal effects Am (slender amaranth (Am) [5]) | Herbicidal effects Ab (China jute (Ab) [6]) | Herbicidal effects Ch [7] | Herbicidal effects Se (green foxtail (Se) [8]) | Herbicidal effects Po (pale smartweed (Po) [9]) | Herbicidal effects Am (slender amaranth (Am) [10]) | Herbicidal effects Ch [11] | Herbicidal effects Ec (barnyardgrass (Ec) [12]) | Herbicidal effects Ci (rice flatsedge (Ci) [13]) | Herbicidal effects Po (pale smartweed (Po) [14]) | Herbicidal effects Am (slender amaranth (Am) [15]) | Herbicidal effects Di (Digitaria ciliaris (Di)) | Phytotoxicity Go (cotton (Go)) | Phytotoxicity Ze (corn (Ze)) | Herbicidal effects Mo (monochoria (Mo)) | further results
1 | CC(C)ON=Cc1cc(-c2ccc(C(F)(F)F)n(C)c2=O)c(F)cc1Cl [Compound 1-189] | 1 | 5 | 5 | 5 | 5 | 5 | 5 | 5 | 5 | 5 | 5 | 5 | 5 | 5 | 5 | 5 | 5 | 0 | 1 | 5 | Herbicidal effects Ec (barnyardgrass (Ec) [16]): 5; Herbicidal effects Sc (bulrush (Sc)): 5; Phytotoxicity Gl (soybean (Gl)): 1; Herbicidal effects Ab (China jute (Ab) [17]): 5; Herbicidal effects Ch [18]: 5; Herbicidal effects Se (green foxtail (Se) [19]): 5; Herbicidal effects Po (pale smartweed (Po) [20]): 5; Herbicidal effects Am (slender amaranth (Am) [21]): 5; Herbicidal effects Ab (China jute (Ab) [22]): 5; Herbicidal effects Ch [23]: 5; Herbicidal effects Se (green foxtail (Se) [24]): 5; Herbicidal effects Po (pale smartweed (Po) [25]): 5; Herbicidal effects Am (slender amaranth (Am) [26]): 5; Herbicidal effects Ch [27]: 5; Herbicidal effects Ec (barnyardgrass (Ec) [28]): 5; Herbicidal effects Ci (rice flatsedge (Ci) [29]): 5; Herbicidal effects Di (Diaitaria ciliaris (Di)): 5; Herbicidal effects Po (pale smartweed (Po) [30]): 5; Herbicidal effects Am (slender amaranth (Am) [31]): 5
2 | CON=C(C)c1cc(-c2ccc(C(F)(F)F)n(C)c2=O)c(F)cc1Cl [Compound 1-192] | 2 | 5 | 5 | 5 | 5 | 5 | 5 | 5 | 5 | 5 | 5 | 5 | 5 | 5 | 5 | 5 | 5 | 0 | 2 | 5 | Herbicidal effects Ec (barnyardgrass (Ec) [16]): 5; Herbicidal effects Sc (bulrush (Sc)): 5; Phytotoxicity Gl (soybean (Gl)): 1; Herbicidal effects Ab (China jute (Ab) [17]): 5; Herbicidal effects Ch [18]: 5; Herbicidal effects Se (green foxtail (Se) [19]): 5; Herbicidal effects Po (pale smartweed (Po) [20]): 5; Herbicidal effects Am (slender amaranth (Am) [21]): 5; Herbicidal effects Ab (China jute (Ab) [22]): 5; Herbicidal effects Ch [23]: 5; Herbicidal effects Se (green foxtail (Se) [24]): 5; Herbicidal effects Po (pale smartweed (Po) [25]): 5; Herbicidal effects Am (slender amaranth (Am) [26]): 5; Herbicidal effects Ch [27]: 5; Herbicidal effects Ec (barnyardgrass (Ec) [28]): 5; Herbicidal effects Ci (rice flatsedge (Ci) [29]): 5; Herbicidal effects Di (Diaitaria ciliaris (Di)): 5; Herbicidal effects Po (pale smartweed (Po) [30]): 5; Herbicidal effects Am (slender amaranth (Am) [31]): 5
3 | COc1cc(-c2ccc(C(F)(F)F)n(C)c2=O)c(Cl)cc1Cl [Compound 1-205] | 1 | 4 | 5 | 5 | 5 | 5 | 4 | 5 | 5 | 5 | 5 | 5 | 5 | 5 | 5 | 5 | 5 | 1 | 2 | 5 | Herbicidal effects Ec (barnyardgrass (Ec) [16]): 5; Herbicidal effects Sc (bulrush (Sc)): 5; Phytotoxicity Gl (soybean (Gl)): 1; Herbicidal effects Ab (China jute (Ab) [17]): 4; Herbicidal effects Ch [18]: 5; Herbicidal effects Se (green foxtail (Se) [19]): 5; Herbicidal effects Po (pale smartweed (Po) [20]): 5; Herbicidal effects Am (slender amaranth (Am) [21]): 5; Herbicidal effects Ab (China jute (Ab) [22]): 4; Herbicidal effects Ch [23]: 5; Herbicidal effects Se (green foxtail (Se) [24]): 5; Herbicidal effects Po (pale smartweed (Po) [25]): 5; Herbicidal effects Am (slender amaranth (Am) [26]): 5; Herbicidal effects Ch [27]: 5; Herbicidal effects Ec (barnyardgrass (Ec) [28]): 5; Herbicidal effects Ci (rice flatsedge (Ci) [29]): 5; Herbicidal effects Di (Diaitaria ciliaris (Di)): 5; Herbicidal effects Po (pale smartweed (Po) [30]): 5; Herbicidal effects Am (slender amaranth (Am) [31]): 5
4 | COCCOCOc1cc(-c2ccc(C(F)(F)F)n(C)c2=O)c(F)cc1Cl [Compound 1-207] | 1 | 5 | 5 | 5 | 5 | 5 | 5 | 5 | 5 | 5 | 5 | 5 | 5 | 5 | 5 | 5 | 5 | 0 | 1 | 5 | Herbicidal effects Ec (barnyardgrass (Ec) [16]): 5; Herbicidal effects Sc (bulrush (Sc)): 5; Phytotoxicity Gl (soybean (Gl)): 1; Herbicidal effects Ab (China jute (Ab) [17]): 5; Herbicidal effects Ch [18]: 5; Herbicidal effects Se (green foxtail (Se) [19]): 5; Herbicidal effects Po (pale smartweed (Po) [20]): 5; Herbicidal effects Am (slender amaranth (Am) [21]): 5; Herbicidal effects Ab (China jute (Ab) [22]): 5; Herbicidal effects Ch [23]: 5; Herbicidal effects Se (green foxtail (Se) [24]): 5; Herbicidal effects Po (pale smartweed (Po) [25]): 5; Herbicidal effects Am (slender amaranth (Am) [26]): 5; Herbicidal effects Ch [27]: 5; Herbicidal effects Ec (barnyardgrass (Ec) [28]): 5; Herbicidal effects Ci (rice flatsedge (Ci) [29]): 5; Herbicidal effects Di (Diaitaria ciliaris (Di)): 5; Herbicidal effects Po (pale smartweed (Po) [30]): 5; Herbicidal effects Am (slender amaranth (Am) [31]): 5
